Data taken from patent EP4721758A1, “NOVEL MEDICINE FOR TREATING OSTEOSARCOMA” (Japanese Foundation For Cancer Research, priority 2023, dated 2024).

Tests used:
BCL-xL = BCL-xL (Homo sapiens, UniProt Q07817); details: cited from earlier work
Mcl-1 [1] = molecular target: T1, Mcl-1 (Homo sapiens, UniProt Q07820); details: cited from earlier work
topoisomerase = details: cited from earlier work
osteosarcoma cells [2] = assay: Inhibitor library drug screening, cell viability (CellTiter-Glo); assay type: cell-based, human; details: nine osteosarcoma cell lines and two PDC, 72 hours, heatmap Fig. 1A
Method: The nine human osteosarcoma cell lines (MG-63 cells, NY cells, HOS cells, HuO9 cells, HuO-3N1 cells, SJSA-1 cells, NOS-1 cells, NOS-10 cells, and G-292 clone A141B1 (G-292) cells) were purchased from the American Type Culture Collection, the RIKEN BioResource Research Center, or the Japanese Collection of Research Bioresources Cell Bank (JCRC) and used at lower passage numbers.
Specifically, • MG-63 cells, NY cells, and HOS cells were cultured in 96-well plates using MEM (Wako) comprising 10% FBS (CORNING), 1% non-essential amino acid solution (Wako), and 100 µ(micro)g/mL kanamycin (MEIJI), • HuO9 cells, HuO-3N1 cells, SJSA-1 cells, NOS-1 cells, and NOS-10 cells were cultured in 96-well plates using RPMI-1640 medium (Wako) comprising 10% FBS and 100 µ(micro)g/mL kanamycin. • G-292 clone A141B1 (G-292) cells were cultured in 96-well plate using McCoy's 5a medium comprising 10% FBS, • Sa-xeno-147 and Sa-xeno-184 cell lines were developed from patient-derived xenograft tumors and were cultured in collagen-coated dishes with RPMI 1640/Ham's F12 (1:1) medium comprising 15% FBS, 20 mM HEPES, and antibiotic-antimycotic solution (Sigma-Aldrich). Cells were cultured at 37°C and 5% CO2.
Cells were seeded in triplicate in 96-well plates (Greiner) or type I collagen-coated plates (IWAKI) at a density of 2000 cells/well and cultured for at least 24 h. After 72 hours of incubation with any of the 96 compounds of the library of the inhibitors, cells were incubated with CellTiter-Glo reagent (Promega) for 2 minutes on a Titramax 100 plate shaker (Heidolph), and after 10 minutes of equilibration, cell viability assays of each osteosarcoma cell were performed by measuring luminescence using a Tristar LB941 multimode microplate reader (Berthold Technologies). The cell viability was calculated as a ratio of the DMSO control to evaluate their effects on osteosarcoma cell proliferation (n=2).

Mcl-1 [3] = molecular target: T1, Mcl-1; details: cited from earlier work; remark: listed apart in the source
NOS-10 cells [4] = assay: Mouse xenograft model, tumor volume; assay type: in vivo, SCID beige mice; details: obatoclax 5 mg/kg, OSI906 25 mg/kg, orally three times a week; MCL1-amplified xenograft; Fig. 6-2 (B)
Method: Using obatoclax or AZD5991 as an Mcl-1 inhibitor, the present inventors used mouse xenograft models of osteosarcoma with MCL1-amplified osteosarcoma (NOS-10 cells) and without MCL1-amplified osteosarcoma (Sa-xeno-147 cells) to determine the efficacy of the combination of obatoclax or AZD5991 with OSI906. To prevent side effects such as weight loss, the drugs were administered three times a week at relatively low concentrations (experimental schemes are shown in Figures 5A and 5D). The changes in tumor volume of NOS-10 cells and Sa-xeno-147 cells by treatment of drugs was examined as follows. NOS-10 cells or Sa-xeno-147 cells were subcutaneously inoculated into immunodeficient SCID beige mice (CB17.Cg-PrkdcscidLystbg-J/CrlCrlj, Charles River Laboratories, Inc.) (5-6×10^6 cells/mouse or 1×10^6 cells/mouse) and orally treated three times a week with vehicle (30% PEG400, 0.5% Tween80, 5% propylene glycol in water), with obatoclax (5 mg/kg), with OSI906 (25 mg/kg), or with obatoclax + OSI906 (5 mg/kg and 25 mg/kg, respectively). […] All data are shown as mean ± SD (n = 4, n = 5, or n = 6). *p < 0.05 and **p < 0.01 are determined using the Mann-Whitney U test.

NOS-10 cells [5] = assay: Cell viability (CellTiter-Glo); assay type: cell-based, human; details: IGF-1R inhibitor in combination with Mcl-1 inhibitors such as obatoclax, AZD5991, and MIK665; 72 hours; Fig. 5-1
Method: In this example, the drug sensitivity of MIK665, an Mcl-1 inhibitor, was evaluated in NOS-10 cells. Various concentrations (i.e., 0, 1, 3, 10, 30, 100, 300, 1000, 3000, 10000, 30000 nM) of MIK665 (TargetMol) were administered, and cell viability was measured using CellTiter-Glo assay reagent 72 hours after drug treatment. As a control, osteosarcoma cells MG-63 cells, without amplification of the copy number of MCL1, were used. Data are shown as MG-63 mean ± SD (n = 3).
Specifically, four types of osteosarcoma cells (i.e., NOS-10 cells, Sa-xeno-147 cells, G-292 cells, and Sa-xeno-184 cells) were treated with six types of BH3 mimetics (i.e., obatoclax, navitoclax, venetoclax, A-1331852, AZD5991, and MIK665), and the cell viability of the osteosarcoma cells was measured.
Meanwhile, the combined effect of AZD5991 and 3 µ(micro)M Navitoclax on cell viability of NOS-10 cells was examined. Cell viability was measured using CellTiter-Glo assay reagent 72 hours after drug treatment. Data are shown as mean ± SD (n = 3).
Specifically, the present inventors investigated the combined effects of 40 nM obatoclax with DOX (Fig. 4-4(E), Fig. 4-5(A)), with CDDP (Fig. 4-4(F), Fig. 4-5(B)), and with MTX (Fig. 4-4(G), Fig. 4-5(C)) on cell viability in NOS-10 cells and Sa-xeno-147 cells. Cell viability was measured for each cell 72 hours after each drug treatment using CellTiter-Glo assay reagent. All data are shown as mean ± SD (n = 3). IC50 values were calculated and the data were graphed using GraphPad Prism.
To identify suitable combination partners of Mcl-1 inhibitors such as obatoclax for osteosarcoma treatment, further drug screening was performed using an in-house library of inhibitors in the presence of obatoclax in osteosarcoma cells. Specifically, the effect of combination of 35 nM obatoclax with an inhibitor out of 94 molecular targeted drugs in the library on cell viability of NOS-10 cells was examined. Cell viability was measured using CellTiter-Glo assay reagent 72 hours after the cells were treated with each combination of drugs. All data are shown as mean ± SD (n = 3). GraphPad Prism was used to calculate IC50 values and graph the data.

osteosarcoma cells [6] = assay: Cell viability after 1 µM obatoclax or navitoclax (CellTiter-Glo); assay type: cell-based, human; details: 72 hours, 11 types of osteosarcoma cells, Fig. 1B
Method: Among these five compounds, obatoclax, a pan-BH3 mimetic, was further investigated. Specifically, the osteosarcoma cells (the above described 11 types of osteosarcoma cells) were seeded in triplicate at a density of 2000 cells/well on 96-well plates (Greiner) or type I collagen-coated plates (IWAKI) and cultured for at least 24 hours. The osteosarcoma cells (i.e., the above described 11 types) were then treated with 1 µ(micro)M obatoclax for 72 hours, after which cell viability was measured using the CellTiter-Glo assay reagent.

T1 sequence (Q07820 whole entry): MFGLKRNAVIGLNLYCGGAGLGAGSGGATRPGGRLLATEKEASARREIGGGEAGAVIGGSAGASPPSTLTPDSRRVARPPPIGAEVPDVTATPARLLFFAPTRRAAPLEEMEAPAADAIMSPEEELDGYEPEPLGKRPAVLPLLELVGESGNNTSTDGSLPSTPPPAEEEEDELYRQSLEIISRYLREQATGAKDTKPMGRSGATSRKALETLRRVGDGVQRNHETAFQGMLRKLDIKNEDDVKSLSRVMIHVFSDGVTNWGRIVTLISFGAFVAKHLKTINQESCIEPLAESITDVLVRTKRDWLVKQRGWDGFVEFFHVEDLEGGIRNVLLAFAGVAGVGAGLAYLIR
Chain of BCL-xL (Q07817 whole entry): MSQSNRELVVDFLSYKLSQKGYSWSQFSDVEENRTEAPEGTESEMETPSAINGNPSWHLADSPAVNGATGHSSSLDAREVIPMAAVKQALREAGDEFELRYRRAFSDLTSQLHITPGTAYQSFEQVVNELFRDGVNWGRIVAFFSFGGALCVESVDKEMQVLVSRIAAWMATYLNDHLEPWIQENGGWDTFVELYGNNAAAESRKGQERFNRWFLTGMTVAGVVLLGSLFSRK

Structure (SMILES): O=C(c1ccccc1O)c1[nH]c(Cl)c(Cl)c1-n1c(C(=O)c2ccccc2O)cc(Cl)c1Cl [Marinopyrrole A]
- binding to BCL-XL (BCL-xL): not to Bcl-XL
- binding to Mcl-1 (Mcl-1 [1]): bind to Mcl-1

Structure (SMILES): CCc1c2c(nc3ccc(O)cc13)-c1cc3c(c(=O)n1C2)COC(=O)[C@]3(O)CC [SN-38]
- activity relative to irinotecan (topoisomerase): 1000 times
- osteosarcoma cell proliferation (cell viability) (osteosarcoma cells [2]): extensive inhibition of osteosarcoma cell proliferation

Structure (SMILES): Cc1nn(C)c(COc2ccc(N3CCN(S(=O)(=O)N(C)C)CC3)cc2)c1-c1cccc2c(CCCOc3cccc4ccccc34)c(C(=O)O)n(CCN3CCOCC3)c12 [A-1210477]
- selectivity than other Bcl-2 family members (Mcl-1 [3]): ≥ 100 fold

Structure (SMILES): C[C@]1(O)C[C@@H](c2nc(-c3ccc4ccc(-c5ccccc5)nc4c3)c3c(N)nccn32)C1 [OSI906]
- tumor growth (NOS-10 cells [4]): little effect on tumor growth
- IC50 value (NOS-10 cells [5]): significantly reduced
- growth inhibitory effect (NOS-10 cells [5]): enhanced

Structure (SMILES): CC1(C)CCC(c2ccc(Cl)cc2)=C(CN2CCN(c3ccc(C(=O)NS(=O)(=O)c4ccc(N[C@H](CCN5CCOCC5)CSc5ccccc5)c(S(=O)(=O)C(F)(F)F)c4)cc3)CC2)C1 [navitoclax]
- cell viability (osteosarcoma cells [6]): little effect on osteosarcoma cell proliferation
